Laboratory results taken from patent US11053204B2, “Pyrimidinyloxy benzene derivatives as herbicides” (FMC Corporation, priority 2015, dated 2021).

Columns and labels:
Type in all cases: in vivo
[1] = tested on: pigweed, palmer (palmer pigweed, Amaranthus palmeri); assay: Test C preemergence, plant response rating
[2] = tested on: johnsongrass (Sorghum halepense); assay: Test C postemergence, plant response rating; settings: for Johnsongrass plant response rating: scale 0 to 100 (0 no effect, 100 complete control)
Procedure, shortened: (§1)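 Visual injury score, 0 = no effect, 100 = complete control, assigned against untreated controls after 13 to 15 d in the greenhouse. Compounds were applied in a surfactant-containing non-phytotoxic solvent mix, preemergence to seeded loam/sand or silt loam soil, or postemergence to 1- to 4-leaf plants (2 to 18 cm).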

[3] = tested on: nightshade (eastern black nightshade, Solanum ptycanthum); assay: Test C postemergence, plant response rating; settings: for Nightshade plant response rating: scale 0 to 100 (0 no effect, 100 complete control)
Procedure, shortened: as §1

[4] = tested on: speedwell (bird's-eye speedwell, Veronica persica); assay: Test C postemergence, plant response rating; settings: for Speedwell plant response rating: scale 0 to 100 (0 no effect, 100 complete control)
Procedure, shortened: as §1

[5] = tested on: windgrass (Apera spica-venti); assay: Test C postemergence, plant response rating
Procedure, shortened: as §1

[6] = tested on: geranium, cutleaf (cutleaf geranium, Geranium dissectum); assay: Test C postemergence, plant response rating; settings: for Geranium, Cutleaf plant response rating: scale 0 to 100 (0 no effect, 100 complete control)
Procedure, shortened: as §1

[7] = tested on: wild poinsettia (Euphorbia heterophylla); assay: Test C postemergence, plant response rating; settings: for Poinsettia, Wild plant response rating: scale 0 to 100 (0 no effect, 100 complete control)
Procedure, shortened: as §1

[8] = tested on: buckwheat, wild (wild buckwheat, Polygonum convolvulus); assay: Test C postemergence, plant response rating; settings: for Buckwheat, Wild plant response rating: scale 0 to 100 (0 no effect, 100 complete control)
Procedure, shortened: as §1

[9] = tested on: field violet (Viola arvensis); assay: Test C postemergence, plant response rating; settings: for Field Violet plant response rating: scale 0 to 100 (0 no effect, 100 complete control)
Procedure, shortened: as §1

[10] = tested on: surinam grass (Brachiaria decumbens); assay: Test C postemergence, plant response rating
Procedure, shortened: as §1

[11] = tested on: pigweed, palmer (palmer pigweed, Amaranthus palmeri); assay: Test C postemergence, plant response rating; settings: for Pigweed, Palmer plant response rating: scale 0 to 100 (0 no effect, 100 complete control)
Procedure, shortened: as §1

[12] = tested on: field poppy (Papaver rhoeas); assay: Test C postemergence, plant response rating; settings: for Field Poppy plant response rating: scale 0 to 100 (0 no effect, 100 complete control)
Procedure, shortened: as §1

[13] = tested on: wild mustard (Sinapis arvensis); assay: Test C postemergence, plant response rating; settings: for Mustard, Wild plant response rating: scale 0 to 100 (0 no effect, 100 complete control)
Procedure, shortened: as §1

[14] = tested on: Canada thistle (Cirsium arvense); assay: Test C postemergence, plant response rating; settings: for Canada Thistle plant response rating: scale 0 to 100 (0 no effect, 100 complete control)
Procedure, shortened: as §1

[15] = tested on: oat, wild (wild oat Avena fatua); assay: Test C preemergence, plant response rating
[16] = tested on: wild poinsettia (Euphorbia heterophylla); assay: Test C preemergence, plant response rating
[17] = tested on: johnsongrass (Sorghum halepense); assay: Test C preemergence, plant response rating
[18] = tested on: kochia (Kochia scoparia); assay: Test C preemergence, plant response rating
[19] = tested on: windgrass (Apera spica-venti); assay: Test C preemergence, plant response rating
[20] = 125 g ai/ha, scale 0 to 100 (0 no effect, 100 complete control)

Q: Which results are given for `N#CC(CCCC(F)(F)F)c1ccccc1Oc1ncc(Cl)cn1` (centres unmarked) [Compound 144]?
A: Plant response rating, Pigweed, Palmer ([1]; 31 g ai/ha, scale 0 to 100): 100; Plant response rating, Pigweed, Palmer ([1]; 62 g ai/ha, scale 0 to 100): 100; Plant response rating, Pigweed, Palmer ([1]; 125 g ai/ha, scale of 0 to 100): 100; Plant response rating, Johnsongrass ([2]; 16 g ai/ha, scale of 0 to 100): 5; Plant response rating, Johnsongrass ([2]; 31 g ai/ha, scale 0 to 100): 5; Johnsongrass plant response rating ([2]; 62 g ai/ha): 5; Johnsongrass plant response rating ([2]; 125 g ai/ha): 5; Plant response rating, Nightshade ([3]; 16 g ai/ha, scale of 0 to 100): 65; Plant response rating, Nightshade ([3]; 31 g ai/ha, scale 0 to 100): 75; Nightshade plant response rating ([3]; 62 g ai/ha): 75; Nightshade plant response rating ([3]; 125 g ai/ha): 90; Plant response rating, Speedwell ([4]; 16 g ai/ha, scale of 0 to 100): 60; Plant response rating, Speedwell ([4]; 31 g ai/ha, scale 0 to 100): 70; Speedwell plant response rating ([4]; 62 g ai/ha): 95; Speedwell plant response rating ([4]; 125 g ai/ha): 95; Plant response rating, Windgrass ([5]; 16 g ai/ha, scale of 0 to 100): 10; Plant response rating, Windgrass ([5]; 31 g ai/ha, scale 0 to 100): 10; Windgrass plant response rating [5, 20]: 30; Plant response rating, Geranium, Cutleaf ([6]; 16 g ai/ha, scale of 0 to 100): 15; Plant response rating, Geranium, Cutleaf ([6]; 31 g ai/ha, scale 0 to 100): 20; Geranium, Cutleaf plant response rating ([6]; 62 g ai/ha): 35; Geranium, Cutleaf plant response rating ([6]; 125 g ai/ha): 40; Plant response rating, Poinsettia, Wild ([7]; 16 g ai/ha, scale of 0 to 100): 30; Plant response rating, Poinsettia, Wild ([7]; 31 g ai/ha, scale 0 to 100): 35; Poinsettia, Wild plant response rating ([7]; 62 g ai/ha): 50; Poinsettia, Wild plant response rating ([7]; 125 g ai/ha): 60; Plant response rating, Buckwheat, Wild ([8]; 16 g ai/ha, scale of 0 to 100): 70; Plant response rating, Buckwheat, Wild ([8]; 31 g ai/ha, scale 0 to 100): 55; Buckwheat, Wild plant response rating ([8]; 62 g ai/ha): 80; Buckwheat, Wild plant response rating ([8]; 125 g ai/ha): 95; Plant response rating, Field Violet ([9]; 16 g ai/ha, scale of 0 to 100): 60; Plant response rating, Field Violet ([9]; 31 g ai/ha, scale 0 to 100): 65; Field Violet plant response rating ([9]; 62 g ai/ha): 80; Field Violet plant response rating ([9]; 125 g ai/ha): 90; Plant response rating, Surinam Grass ([10]; 16 g ai/ha, scale of 0 to 100): 10; Plant response rating, Surinam Grass ([10]; 31 g ai/ha, scale 0 to 100): 20; Surinam Grass plant response rating [10, 20]: 25; Plant response rating, Pigweed, Palmer ([11]; 16 g ai/ha, scale of 0 to 100): 25; Plant response rating, Pigweed, Palmer ([11]; 31 g ai/ha, scale 0 to 100): 35; Pigweed, Palmer plant response rating ([11]; 62 g ai/ha): 40; Pigweed, Palmer plant response rating ([11]; 125 g ai/ha): 80; Plant response rating, Field Poppy ([12]; 16 g ai/ha, scale of 0 to 100): 60; Plant response rating, Field Poppy ([12]; 31 g ai/ha, scale 0 to 100): 80; Field Poppy plant response rating ([12]; 62 g ai/ha): 90; Field Poppy plant response rating ([12]; 125 g ai/ha): 100; Plant response rating, Mustard, Wild ([13]; 16 g ai/ha, scale of 0 to 100): 70; Plant response rating, Mustard, Wild ([13]; 31 g ai/ha, scale 0 to 100): 70; Mustard, Wild plant response rating ([13]; 62 g ai/ha): 80; Mustard, Wild plant response rating ([13]; 125 g ai/ha): 95; Plant response rating, Canada Thistle ([14]; 16 g ai/ha, scale of 0 to 100): 90; Plant response rating, Canada Thistle ([14]; 31 g ai/ha, scale 0 to 100): 60; Canada Thistle plant response rating ([14]; 62 g ai/ha): 90; Canada Thistle plant response rating ([14]; 125 g ai/ha): 90; Plant response rating, Oat, Wild ([15]; 31 g ai/ha, scale 0 to 100): 5; Plant response rating, Oat, Wild ([15]; 62 g ai/ha, scale 0 to 100): 10; Plant response rating, Oat, Wild ([15]; 125 g ai/ha, scale of 0 to 100): 10; Plant response rating, Poinsettia, Wild ([16]; 31 g ai/ha, scale 0 to 100): 5; Plant response rating, Poinsettia, Wild ([16]; 62 g ai/ha, scale 0 to 100): 40; Plant response rating, Poinsettia, Wild ([16]; 125 g ai/ha, scale of 0 to 100): 80; Plant response rating, Johnsongrass ([17]; 31 g ai/ha, scale 0 to 100): 10; Plant response rating, Johnsongrass ([17]; 62 g ai/ha, scale 0 to 100): 40; Plant response rating, Johnsongrass ([17]; 125 g ai/ha, scale of 0 to 100): 70; Plant response rating, Kochia ([18]; 31 g ai/ha, scale 0 to 100): 90; Plant response rating, Kochia ([18]; 62 g ai/ha, scale 0 to 100): 100; Plant response rating, Kochia ([18]; 125 g ai/ha, scale of 0 to 100): 100; Plant response rating, Windgrass ([19]; 31 g ai/ha, scale 0 to 100): 30; Plant response rating, Windgrass ([19]; 62 g ai/ha, scale 0 to 100): 80; Plant response rating, Windgrass ([19]; 125 g ai/ha, scale of 0 to 100): 90
